Data on 48 molecules can be found in patent US8431704B2, “Quinoline or isoquinoline substituted P2X7 antagonists” (Janssen Pharmaceutica NV, priority 2008, dated 2013).

The target in the experiment is T1, P2X7 (Homo sapiens, UniProt Q99572).
T1 construct: endogenous in cells; host or cells: THP-1 human monocytic cell line
T1 sequence (Q99572 1-595): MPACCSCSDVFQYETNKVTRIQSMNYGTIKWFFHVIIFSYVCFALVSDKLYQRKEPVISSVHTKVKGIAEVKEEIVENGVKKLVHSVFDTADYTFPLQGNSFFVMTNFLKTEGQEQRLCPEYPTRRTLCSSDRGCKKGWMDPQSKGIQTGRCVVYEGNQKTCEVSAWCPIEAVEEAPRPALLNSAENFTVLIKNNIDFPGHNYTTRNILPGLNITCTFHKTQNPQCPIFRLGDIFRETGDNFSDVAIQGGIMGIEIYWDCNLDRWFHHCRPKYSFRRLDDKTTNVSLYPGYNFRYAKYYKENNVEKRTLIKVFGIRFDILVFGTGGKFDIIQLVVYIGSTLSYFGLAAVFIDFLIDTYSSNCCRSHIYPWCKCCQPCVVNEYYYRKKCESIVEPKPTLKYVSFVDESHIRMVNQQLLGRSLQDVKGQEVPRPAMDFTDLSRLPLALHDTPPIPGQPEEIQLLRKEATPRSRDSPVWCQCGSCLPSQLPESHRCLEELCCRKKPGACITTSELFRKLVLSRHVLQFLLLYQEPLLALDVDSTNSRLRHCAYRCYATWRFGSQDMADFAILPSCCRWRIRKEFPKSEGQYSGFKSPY
Briefly: THP-1 YoPro uptake assay (BzATP-stimulated Yo-Pro-1 uptake). The conditions noted are these: Table F-10, THP-1 cells, read-out: mean pIC50 values for P2X7 antagonism (converted). The experiment is classed as cell-based. The method, then: The human monocytic cell line THP-1 was grown as a suspension culture in RPMI medium supplemented with 10% fetal bovine serum, penicillin/streptomycin (50 units/mL), 2 mM L-glutamine, and 20 μM 2-mercaptoethanol. Cells were maintained at a density below 0.5 million per mL. On the day of the assay, cells were washed twice with assay buffer, and then resuspended at 2 million per mL in assay buffer containing 2 μM Yo-Pro-1 (Invitrogen). The assay buffer contained (in mM): 280 sucrose, 5 KCl, 10 glucose, 10 HEPES, 5 N-methyl-D-glucamine. The cells were added at 200 k/well into poly-D-lysine-coated black-walled 96-well plates (Biocoat, Becton-Dickinson). Test compounds were dissolved in DMSO, and then added at the test concentration to each well of the 96-well plate. Concentration dependence of block was determined by exposing each well of cells in duplicate rows of a 96-well plate to a serial dilution of test compound. The concentration series usually started at 10 μM with a three-fold decrement in concentration. The final DMSO concentration seen by the cells was less than 0.5%. Cells were incubated with test compounds for 30 minutes at 37° C. A background reading was taken using a Gemini SpectraMax with 490 nm excitation and 530 nm emission. […] After incubation for 60 minutes at 37° C., an endpoint read was taken in the SpectraMax plate reader. The amount of block of the response was determined by comparing the fluorescence intensity in each well to the average of control wells on each plate. The control wells contained either a known antagonist of P2X7 (positive controls) or a concentration of DMSO equal to that in the test wells. Data were analyzed using a nonlinear regression program (Origin, OriginLab, MA). Results are reported as the −log of the IC50 (pIC50).

As to `O=C(NCC(c1cnc(C(F)(F)F)nc1)N1CCOCC1)c1c(Cl)ccc2nc(NCC3CCOCC3)ccc12` (stereo not drawn) [Compound 527], the IC50 is 77.6 nM. Under `CC(=O)NC1CC2CCC(C1)N2c1ccc2c(C(=O)NCC(c3cnc(C(F)(F)F)nc3)N3CCOCC3)c(Cl)ccc2n1` (stereo not drawn) [Compound 555] stands 16.2 nM; under `CN1CCN(c2ccc3c(C(=O)NCC(c4cnc(C(F)(F)F)nc4)N4CCOCC4)c(Cl)ccc3n2)CC1` (stereo not drawn) [Compound 505], 5.13 nM; under `C[C@@H]1CN(c2ccc3c(C(=O)NCC(c4cnc(C(F)(F)F)nc4)N4CCC(F)(F)CC4)c(Cl)ccc3n2)C[C@H](C)O1` (stereo partly drawn) [Compound 494], 14.1 nM. For `O=C(NCC(c1cnc(C(F)(F)F)nc1)N1CCC(F)(F)CC1)c1c(Cl)ccc2nc(N3CCC(c4n[nH]c(=O)[nH]4)CC3)ccc12` (stereo not drawn) [Compound 515], the IC50 is 5.62 nM. As to `O=C(NCC(c1cnc(C(F)(F)F)nc1)N1CCOCC1)c1c(Cl)ccc2nc(NCc3cc(F)cc(F)c3)ccc12` (stereo not drawn) [Compound 447], the IC50 was 309 nM. Turning to `N[C@@H]1CCCN(c2ccc3c(C(=O)NCC(c4cnc(C(F)(F)F)nc4)N4CCC(F)(F)CC4)c(Cl)ccc3n2)C1` (stereo partly drawn) [Compound 423], the IC50 was 1.12 nM. For `Nc1ccc2c(C(=O)NCC(c3cnc(C(F)(F)F)nc3)N3CCC(F)(F)CC3)c(Cl)ccc2n1` (stereo not drawn) [Compound 596], the IC50 is 3.55 nM. With `O=C(NCC(c1cnc(C(F)(F)F)nc1)N1CCOCC1)c1c(Cl)ccc2nc(NC3CCOCC3)ccc12` (stereo not drawn) [Compound 554], the IC50 was 12.6 nM. `O=C(NCC(c1cnc(C(F)(F)F)nc1)N1CCOCC1)c1c(Cl)ccc2nc(NCC3CCCO3)ccc12` (stereo not drawn) [Compound 432]: the IC50 is 100000 nM.

Regarding `O=C(NCC(c1cnc(C(F)(F)F)nc1)N1CCOCC1)c1c(Cl)ccc2nc(NC3CC3)ccc12` (stereo not drawn) [Compound 501], the IC50 was 10.2 nM.

Turning to `CNc1ccc2c(C(=O)NCC(c3cnc(C(F)(F)F)nc3)N3CCC(F)(F)CC3)c(Cl)ccc2n1` (stereo not drawn) [Compound 492], the IC50 was 2.45 nM. For the molecule `O=C(NCC(c1cnc(C(F)(F)F)nc1)N1CCC(F)(F)CC1)c1c(Cl)ccc2nc(N3CCN(C4CC4)CC3)ccc12` (stereo not drawn) [Compound 425], the IC50 was 6.31 nM. Regarding `O=C(NCC(c1cnc(C(F)(F)F)nc1)N1CCOCC1)c1c(Cl)ccc2nc(N3C[C@@H]4C[C@H]3CO4)ccc12` (stereo partly drawn) [Compound 526], the IC50 was 56.2 nM. The value for `N[C@H]1CCN(c2ccc3c(C(=O)NCC(c4cnc(C(F)(F)F)nc4)N4CCOCC4)c(Cl)ccc3n2)C1` (stereo partly drawn) [Compound 563] was 0.851 nM. On to `C[C@H]1CCCN(c2ccc3c(C(=O)NCC(c4cnc(C(F)(F)F)nc4)N4CCOCC4)c(Cl)ccc3n2)C1` (stereo partly drawn) [Compound 454], for which the IC50 was 19.1 nM. For the molecule `O=C(NCC(c1cnc(C(F)(F)F)nc1)N1CCOCC1)c1c(Cl)ccc2nc(N3CC4CNCC4C3)ccc12` (stereo not drawn) [Compound 558], the IC50 was 2.51 nM. The value for `N[C@@H]1CCCN(c2ccc3c(C(=O)NCC(c4cnc(C(F)(F)F)nc4)N4CCOCC4)c(Cl)ccc3n2)C1` (stereo partly drawn) [Compound 413] was 5.13 nM; that for `O=C(NCC(c1cnc(C(F)(F)F)nc1)N1CCCCC1)c1c(Cl)ccc2nc(N3CCOCC3)ccc12` (stereo not drawn) [Compound 548] was 1.91 nM; that for `N[C@H]1CCCN(c2ccc3c(C(=O)NCC(c4cnc(C(F)(F)F)nc4)N4CCC(F)(F)CC4)c(Cl)ccc3n2)C1` (stereo partly drawn) [Compound 424] was 2.24 nM. On to `CN(C)[C@H]1CCN(c2ccc3c(C(=O)NCC(c4cnc(C(F)(F)F)nc4)N4CCOCC4)c(Cl)ccc3n2)C1` (stereo partly drawn) [Compound 407], for which the IC50 was 7.41 nM.

Take `O=C(NCC(c1cnc(C(F)(F)F)nc1)N1CCOCC1)c1c(Cl)ccc2nc(N3CCC(C(=O)O)CC3)ccc12` (stereo not drawn) [Compound 464]: the IC50 was 117 nM. Under `CCN1CCN(c2ccc3c(C(=O)NCC(c4cnc(C(F)(F)F)nc4)N4CCC(F)(F)CC4)c(Cl)ccc3n2)CC1` (stereo not drawn) [Compound 428] stands 3.24 nM; under `CN(CCN)c1ccc2c(C(=O)NCC(c3cnc(C(F)(F)F)nc3)N3CCOCC3)c(Cl)ccc2n1` (stereo not drawn) [Compound 523], 15.8 nM. Under `O=C(NCC(c1cnc(C(F)(F)F)nc1)N1CCOCC1)c1c(Cl)ccc2nc(NCc3ccccc3)ccc12` (stereo not drawn) [Compound 434] stands 14.5 nM; under `O=C(NCC(c1cnc(C(F)(F)F)nc1)N1CCOCC1)c1c(Cl)ccc2nc(N3CCCC3)ccc12` (stereo not drawn) [Compound 415], 2.4 nM.

Take `O=C(NCC(c1cnc(C(F)(F)F)nc1)N1CCC(F)(F)CC1)c1c(Cl)ccc2nc(N3CCOCC3)ccc12` (stereo not drawn) [Compound 403]: the IC50 was 14.8 nM.

Turning to `O=C(NCC(c1cnc(C(F)(F)F)nc1)N1CCOCC1)c1c(Cl)ccc2nc(N3CC[C@H](O)C3)ccc12` (stereo partly drawn) [Compound 506], the IC50 is 18.2 nM. For the molecule `O=C(NCC(c1cnc(C(F)(F)F)nc1)N1CCOCC1)c1c(Cl)ccc2nc(NCc3ccc4c(c3)OCO4)ccc12` (stereo not drawn) [Compound 440], the IC50 was 37.2 nM. The value for `CC1CN(c2ccc3c(C(=O)NCC(c4cnc(C(F)(F)F)nc4)N4CCOCC4)c(Cl)ccc3n2)CC(C)N1` (stereo not drawn) [Compound 436] was 31.6 nM; that for `O=C(NCC(c1cnc(C(F)(F)F)nc1)N1CCOCC1)c1c(Cl)ccc2nc(N3CCNCC3)ccc12` (stereo not drawn) [Compound 504] was 6.92 nM; that for `O=C(NCC(c1cnc(C(F)(F)F)nc1)N1CCOCC1)c1c(Cl)ccc2nc(N3CCC4(CC3)OCCCO4)ccc12` (stereo not drawn) [Compound 441] was 24.5 nM. Turning to `NCC1CCN(c2ccc3c(C(=O)NCC(c4cnc(C(F)(F)F)nc4)N4CCOCC4)c(Cl)ccc3n2)CC1` (stereo not drawn) [Compound 521], the IC50 was 13.8 nM. As to `O=C(NCC(c1cnc(C(F)(F)F)nc1)N1CCOCC1)c1c(Cl)ccc2nc(N3CCN(C4CC4)CC3)ccc12` (stereo not drawn) [Compound 409], the IC50 was 3.39 nM. The value for `CN[C@H]1CCN(c2ccc3c(C(=O)NCC(c4cnc(C(F)(F)F)nc4)N4CCOCC4)c(Cl)ccc3n2)C1` (stereo partly drawn) [Compound 556] was 1.15 nM. Regarding `O=C(NCC(c1cnc(C(F)(F)F)nc1)N1CCOCC1)c1c(Cl)ccc2nc(NCc3ccc(F)cc3)ccc12` (stereo not drawn) [Compound 438], the IC50 is 22.9 nM.

Turning to `O=C(NCC(c1cnc(C(F)(F)F)nc1)N1CCOCC1)c1c(Cl)ccc2nc(N3CC4CCNC4C3)ccc12` (stereo not drawn) [Compound 560], the IC50 was 4.9 nM.

For the molecule `NCCNc1ccc2c(C(=O)NCC(c3cnc(C(F)(F)F)nc3)N3CCCCC3)c(Cl)ccc2n1` (stereo not drawn) [Compound 545], the IC50 is 1.45 nM. With `CC(C)N1CCN(c2ccc3c(C(=O)NCC(c4cnc(C(F)(F)F)nc4)N4CCC(F)(F)CC4)c(Cl)ccc3n2)CC1` (stereo not drawn) [Compound 427], the IC50 is 3.39 nM. Take `CS(=O)(=O)N[C@H]1CCN(c2ccc3c(C(=O)NCC(c4cnc(C(F)(F)F)nc4)N4CCOCC4)c(Cl)ccc3n2)C1` (stereo partly drawn) [Compound 551]: the IC50 was 14.8 nM.

In the case of `O=C(NCC(c1cnc(C(F)(F)F)nc1)N1CCC(F)(F)CC1)c1c(Cl)ccc2nc(N3CCNCC3)ccc12` (stereo not drawn) [Compound 485], the IC50 was 2.24 nM. For the molecule `NCCNc1ccc2c(C(=O)NCC(c3cnc(C(F)(F)F)nc3)N3CCOCC3)c(Cl)ccc2n1` (stereo not drawn) [Compound 557], the IC50 is 1.12 nM.

Consider `O=C(NCC(c1cnc(C(F)(F)F)nc1)N1CCCCC1)c1c(Cl)ccc2nc(NCCO)ccc12` (stereo not drawn) [Compound 547], for which the IC50 was 3.47 nM. As for `CN(C)[C@@H]1CCN(c2ccc3c(C(=O)NCC(c4cnc(C(F)(F)F)nc4)N4CCOCC4)c(Cl)ccc3n2)C1` (stereo partly drawn) [Compound 406], the IC50 is 8.71 nM. With `O=C(NCC(c1cnc(C(F)(F)F)nc1)N1CCOCC1)c1c(Cl)ccc2nc(N3CCCNCC3)ccc12` (stereo not drawn) [Compound 444], the IC50 is 25.7 nM. Under `N[C@@H]1CCN(c2ccc3c(C(=O)NCC(c4cnc(C(F)(F)F)nc4)N4CCOCC4)c(Cl)ccc3n2)C1` (stereo partly drawn) [Compound 561] stands 1.35 nM.

In the case of `CCN1CCN(c2ccc3c(C(=O)NCC(c4cnc(C(F)(F)F)nc4)N4CCOCC4)c(Cl)ccc3n2)CC1` (stereo not drawn) [Compound 411], the IC50 was 5.62 nM.

Turning to `O=C(NCC(c1cnc(C(F)(F)F)nc1)N1CCC(F)(F)CC1)c1c(Cl)ccc2nc(NCC(O)CO)ccc12` (stereo not drawn) [Compound 508], the IC50 was 25.7 nM.
